Measurements published in patent US20260083864A1, “CONTRAST AGENTS FOR USE IN DIAGNOSTIC COMPUTED TOMOGRAPHY IMAGING” (Bayer Aktiengesellschaft, priority 2022, published 2026).

Legend:
[1] = Relaxivity measurements at 1.41 T in human plasma; assay type: physicochemical; details: 37° C., normalized to Gd
Summary of the method: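 T1 determined by inversion recovery (8 inversion-time steps) and T2 by CPMG sequence, both with relaxation delay ≥5×T1. Each relaxivity used three Gd concentrations between 0.05 and 2 mM. Relaxivities were derived from relaxation rates measured in water and plasma.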

[2] = test system: freshly isolated rat hepatocytes; test: Uptake into freshly isolated rat hepatocytes; details: for Uptake rat hepatocytes: 100 μmol Gd/L, 10 min, 37° C., relative to RC1 (Gd-EOB-DTPA); for Inhibition Rifampicine: rat hepatocyte uptake, test item and Rifampicine 1:1, each 100 μM
OATP1B1 = molecular target: T1, OATP1B1 (Homo sapiens, UniProt Q9Y6L6); test: Uptake into stable transfected OATP1B1 HEK 293 cells; assay type: cell-based; details: for Uptake into OATP1B1-HEK 293 cells: 40 min incubation, relative to RC1 (Gd-EOB-DTPA); for Inhibition Rifampicine: uptake into OATP1B1-HEK 293 cells
T1 sequence (Q9Y6L6 1-691): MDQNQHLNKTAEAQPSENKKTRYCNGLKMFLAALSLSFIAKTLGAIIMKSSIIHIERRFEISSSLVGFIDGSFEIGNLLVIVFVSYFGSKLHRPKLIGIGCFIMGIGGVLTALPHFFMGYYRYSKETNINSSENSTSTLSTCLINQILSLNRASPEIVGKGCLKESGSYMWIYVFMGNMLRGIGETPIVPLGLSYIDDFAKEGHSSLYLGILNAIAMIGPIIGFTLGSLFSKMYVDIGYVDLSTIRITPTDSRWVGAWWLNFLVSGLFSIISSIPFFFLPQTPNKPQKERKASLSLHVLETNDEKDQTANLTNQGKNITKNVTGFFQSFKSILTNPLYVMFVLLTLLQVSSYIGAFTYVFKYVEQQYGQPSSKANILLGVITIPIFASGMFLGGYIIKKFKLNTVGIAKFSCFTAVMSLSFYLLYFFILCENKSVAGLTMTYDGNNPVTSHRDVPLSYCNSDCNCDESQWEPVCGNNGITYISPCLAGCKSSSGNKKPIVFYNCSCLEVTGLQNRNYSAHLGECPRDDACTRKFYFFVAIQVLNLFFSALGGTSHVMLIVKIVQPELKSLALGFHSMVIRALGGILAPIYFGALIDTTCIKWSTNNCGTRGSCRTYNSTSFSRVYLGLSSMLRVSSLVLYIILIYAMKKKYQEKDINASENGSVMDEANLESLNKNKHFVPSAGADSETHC
Summary of the method: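 Stably transfected OATP1B1 HEK293 cells incubated 40 min without shaking with test item at 100 µM final in transport buffer, in triplicate. Cells then washed with cold PBS; gadoxetate run on the same plate as reference.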

OATP1B3 = molecular target: T2, OATP1B3 (Homo sapiens, UniProt Q9NPD5); test: Uptake into stable transfected OATP1B3 HEK 293 cells; assay type: cell-based; details: for Uptake into OATP1B3-HEK 293 cells: 40 min incubation, relative to RC1 (Gd-EOB-DTPA); for Inhibition Rifampicine: uptake into OATP1B3-HEK 293 cells
T2 sequence (Q9NPD5 1-702): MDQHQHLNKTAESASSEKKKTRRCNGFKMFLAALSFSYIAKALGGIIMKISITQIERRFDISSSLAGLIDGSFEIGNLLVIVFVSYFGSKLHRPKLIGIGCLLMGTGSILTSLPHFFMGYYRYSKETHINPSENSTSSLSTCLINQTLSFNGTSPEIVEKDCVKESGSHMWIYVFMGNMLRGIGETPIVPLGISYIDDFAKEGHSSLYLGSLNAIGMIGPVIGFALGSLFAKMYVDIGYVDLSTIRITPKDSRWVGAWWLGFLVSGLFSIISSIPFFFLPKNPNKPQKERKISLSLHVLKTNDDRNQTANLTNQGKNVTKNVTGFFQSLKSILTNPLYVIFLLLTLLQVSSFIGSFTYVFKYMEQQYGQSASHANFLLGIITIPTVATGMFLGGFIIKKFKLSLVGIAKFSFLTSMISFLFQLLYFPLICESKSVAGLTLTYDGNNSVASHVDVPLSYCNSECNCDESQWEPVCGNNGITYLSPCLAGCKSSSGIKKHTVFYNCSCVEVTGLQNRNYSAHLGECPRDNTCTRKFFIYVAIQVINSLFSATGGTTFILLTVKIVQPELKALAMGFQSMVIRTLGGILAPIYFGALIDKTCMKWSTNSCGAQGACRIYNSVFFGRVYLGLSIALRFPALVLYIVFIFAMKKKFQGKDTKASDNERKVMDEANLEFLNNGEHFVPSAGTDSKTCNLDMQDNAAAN
Summary of the method: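 HEK 293 cells stably transfected with human OATP1B3 were incubated for 40 min with test items at 100 μM final in transport buffer, in triplicate, then washed with cold PBS. Gadoxetate (Gd-EOB-DTPA) served as the reference standard on the same plate.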

[3] = Relaxivity measurements at 1.41 T in water; assay type: physicochemical; details: 37° C., normalized to Gd
Summary of the method: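 T1 by inversion recovery and T2 by CPMG at 1.41 T (60 MHz), 37° C, relaxation delay ≥5×T1. Three Gd concentrations between 0.05 and 2 mM; relaxivities derived from measured relaxation rates in water.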

[4] = Water solubility in aqueous buffer; details: aqueous buffer 10 mM Tris-HCl, pH 7.4, 20° C.
Protocol: The solid compounds were added stepwise to the buffer solution. More substance is added once all the suspended material is dissolved until an equilibrium between undissolved and dissolved substance is reached. The suspension was mixed using a shaker (Heidolph Reax 2000) and treated 5 min in an ultrasound bath (Bandelin, Sonorex Super RK255H).

[5] = Partition coefficient (log P butanol/buffer); assay type: physicochemical; details: 1-butanol / 50 mM Tris-HCl, pH 7.4, room temperature

Row | SMILES | r1 human plasma [1] [L/mmol/s] | Uptake rat hepatocytes [2] | Inhibition Rifampicine [2] [% inhibition] | Uptake into OATP1B1-HEK 293 cells (OATP1B1) | Inhibition Rifampicine (OATP1B1) [% inhibition] | Uptake into OATP1B3-HEK 293 cells (OATP1B3) | Inhibition Rifampicine (OATP1B3) [% inhibition] | r1 water [3] [L/mmol/s] | Solubility [4] [mM] | Log P (partition coefficient butanol/buffer) [5]
1 | CCOCCOCCOc1ccc(CC(C(=O)O)N2CCN(CC(=O)[O-])CCN(C(CO)C(=O)[O-])CCN(CC(=O)[O-])CC2)cc1.[Gd+3] (stereo not shown) [Example 41, gadolinium-2-{7-[1-carboxy-2-{4-[2-(2-ethoxyethoxy)ethoxy]phenyl}ethyl]-4,10-bis(carboxylatomethyl)-1,4,7,10-tetraazacyclododecan-1-yl}-3-hydroxypropanoate] | 5.7 | 52 % of RC1 | 56 | 218 % of RC1 | 30 | 47 % of RC1 | 74 | 4.5 | >13 | −1.61
2 | CCOCCOCCOCCOc1ccc(CC(C(=O)O)N2CCN(CC(=O)[O-])CCN(CC(=O)[O-])CCN(CC(=O)[O-])CC2)cc1.[Gd+3] (stereo not shown) [Example 10, gadolinium 2,2′,2″-{10-[1-carboxy-2-(4-{2-[2-(2-ethoxyethoxy)ethoxy]ethoxy}phenyl)ethyl]-1,4,7,10-tetraazacyclododecane-1,4,7-triyl}triacetate] | 6.6 | 49 % of RC1 | 90 | 87 % of RC1 | 43 | 13 % of RC1 | 95 | 4.5 | >272 | −1.70
3 | CCCCOc1ccc(CC(C(=O)O)N2CCN(CC(=O)[O-])CCN(CC(=O)[O-])CCN(CC(=O)[O-])CC2)cc1.[Gd+3] (stereo not shown) [Example 14, gadolinium 2,2′,2″-{10-[2-(4-butoxyphenyl)-1-carboxyethyl]-1,4,7,10-tetraazacyclododecane-1,4,7-triyl}triacetate] | 13.3 | 96 % of RC1 | 98 | 856 % of RC1 | 98 | 69 % of RC1 | 97 | 4.3 | 5 | −0.38
4 | CCOCCOCCOCCOc1ccc(CC(C(=O)O)N2CCN(CC(=O)[O-])CCN(C(COC)C(=O)[O-])CCN(CC(=O)[O-])CC2)cc1.[Gd+3] (stereo not shown) [Example 13, gadolinium 2-{7-[1-carboxy-2-(4-{2-[2-(2-ethoxyethoxy)ethoxy]ethoxy}phenyl)ethyl]-4,10-bis(carboxylatomethyl)-1,4,7,10-tetraazacyclododecan-1-yl}-3-methoxypropanoate] | 7.0 | 49 % of RC1 | 86 | 109 % of RC1 | 30 | 31 % of RC1 | 93 | 5.2 | 67 | −1.53
5 | CCOCCOCCOc1ccc(CC(C(=O)O)N2CCN(CC(=O)[O-])CCN(CC(=O)[O-])CCN(CC(=O)[O-])CC2)nc1.[Gd+3] (stereo not shown) [Example 23, gadolinium 2,2′,2″-{10-[1-carboxy-2-{5-[2-(2-ethoxyethoxy)ethoxy]pyridin-2-yl}ethyl]-1,4,7,10-tetraazacyclododecane-1,4,7-triyl}triacetate] | 6.0 | 17 % of RC1 | 73 | – | 0 | – | 71 | 4.5 | >241 | −1.94
6 | CCCC(C(=O)[O-])N1CCN(CC(=O)[O-])CCN(C(Cc2ccc(OCC)cc2)C(=O)O)CCN(CC(=O)[O-])CC1.[Gd+3] (stereo not shown) [Example 30, gadolinium 2-{7-[1-carboxy-2-(4-ethoxyphenyl)ethyl]-4,10-bis(carboxylatomethyl)-1,4,7,10-tetraazacyclododecan-1-yl}pentanoate] | 7.6 | 75 % of RC1 | 99 | 169 % of RC1 | 90 | 62 % of RC1 | 98 | 4.7 | >35 | −0.60
7 | CCOCCOCCOc1ccc(CCC[C@H](C(=O)O)N2CCN([C@H](CO)C(=O)[O-])CCN([C@H](CO)C(=O)[O-])CCN([C@H](CO)C(=O)[O-])CC2)cc1.[Gd+3] [Example 19, gadolinium (2R,2′R,2″R)-2,2′,2″-{10-[(1R)-1-carboxy-4-{4-[2-(2-ethoxyethoxy)ethoxy]phenyl}butyl]-1,4,7,10-tetraazacyclododecane-1,4,7-triyl}tris(3-hydroxypropanoate)] | 9.0 | 92 % of RC1 | 92 | – | 92 | – | 96 | 5.3 | >410 | −0.95
8 | CCOCCOc1ccc(CC(C(=O)O)N2CCN(CC(=O)[O-])CCN(CC(=O)[O-])CCN(CC(=O)[O-])CC2)cc1.[Gd+3] (stereo not shown) [Example 32, gadolinium 2,2′,2″-(10-{1-carboxy-2-[4-(2-ethoxyethoxy)phenyl]ethyl}-1,4,7,10-tetraazacyclododecane-1,4,7-triyl)triacetate] | 6.6 | 54 % of RC1 | 93 | 147 % of RC1 | 72 | 22 % of RC1 | 94 | 4.1 | >198 | −1.53
